Test results: patent publication US11427567B2, “Imidazolyl pyrimidinylamine compounds as CDK2 inhibitors” (Incyte Corporation, priority 2019, dated 2022)

Target: CDK2/Cyclin E1 (Homo sapiens (Human), UniProt P24941)
Test: CDK2/Cyclin E1 HTRF enzyme activity assay (Example A)
Type: biochemical
Conditions: 1 mM ATP
Experimental: Assays were conducted in white 384-well polystyrene plates in a final reaction volume of 8 μL. […] HTRF signals were read after 1 hour at room temperature on a PHERAstar FS plate reader (BMG Labtech). Data was analyzed with IDBS XLFit and GraphPad Prism 5.0 software using a three or four parameter dose response curve to determine IC50 for each compound.

SMILES | IC50 [nM]
CS(=O)(=O)N1CCC(Nc2ncc(C(F)(F)F)c(-c3cn(-c4ccc(C#N)nc4CO)cn3)n2)CC1 [Example 236, 6-(Hydroxymethyl)-5-(4-(2-((1-(methylsulfonyl)piperidin-4-yl)amino)-5-(trifluoromethyl)pyrimidin-4-yl)-1H-imidazol-1-yl)picolinonitrile] | ≤ 50
CS(=O)(=O)N1CCC(Nc2ncc(C(F)(F)F)c(-c3cn(-c4ccccc4CO)cn3)n2)CC1 [Example 237, (2-(4-(2-((1-(Methylsulfonyl)piperidin-4-yl)amino)-5-(trifluoromethyl)pyrimidin-4-yl)-1H-imidazol-1-yl)phenyl)methanol] | ≤ 50
CS(=O)(=O)N1CCC(Nc2ncc(C(F)(F)F)c(-c3cn(-c4ccc(Cn5ccnc5)cc4Cl)cn3)n2)CC1 [Example 238, 4-(1-(4-((H-Imidazol-1-yl)methyl)-2-chlorophenyl)-1H-imidazol-4-yl)-N-(1-(methylsulfonyl)piperidin-4-yl)-5-(trifluoromethyl)pyrimidin-2-amine] | ≤ 50
CS(=O)(=O)N1CCC(Nc2ncc(C(F)(F)F)c(-c3cn(-c4ccc(Cn5cnnc5)cc4Cl)cn3)n2)CC1 [Example 239, 4-(1-(4-((4H-1,2,4-Triazol-4-yl)methyl)-2-chlorophenyl)-1H-imidazol-4-yl)-N-(1-(methylsulfonyl)piperidin-4-yl)-5-(trifluoromethyl)pyrimidin-2-amine] | ≤ 50
CS(=O)(=O)N1CCC(Nc2ncc(C(F)(F)F)c(-c3cn(-c4ccc(Cn5cncn5)cc4Cl)cn3)n2)CC1 [Example 240, 4-(1-(4-((1H-1,2,4-Triazol-1-yl)methyl)-2-chlorophenyl)-1H-imidazol-4-yl)-N-(1-(methylsulfonyl)piperidin-4-yl)-5-(trifluoromethyl)pyrimidin-2-amine] | ≤ 50
CS(=O)(=O)N1CCC(Nc2ncc(C(F)(F)F)c(-c3cn(-c4ccc(Cn5nccn5)cc4Cl)cn3)n2)CC1 [Example 241, 4-(1-(4-((2H-1,2,3-Triazol-2-yl)methyl)-2-chlorophenyl)-1H-imidazol-4-yl)-N-(1-(methylsulfonyl)piperidin-4-yl)-5-(trifluoromethyl)pyrimidin-2-amine] | ≤ 50
CS(=O)(=O)N1CCC(Nc2ncc(C(F)(F)F)c(-c3cn(-c4ccc(Cn5ccnn5)cc4Cl)cn3)n2)CC1 [Example 242, 4-(1-(4-((1H-1,2,3-Triazol-1-yl)methyl)-2-chlorophenyl)-1H-imidazol-4-yl)-N-(1-(methylsulfonyl)piperidin-4-yl)-5-(trifluoromethyl)pyrimidin-2-amine] | ≤ 50
CS(=O)(=O)N1CCC(Nc2ncc(C(F)(F)F)c(-c3cn(-c4ccc(Cn5ncnn5)cc4Cl)cn3)n2)CC1 [Example 243, 4-(1-(4-((2H-Tetrazol-2-yl)methyl)-2-chlorophenyl)-1H-imidazol-4-yl)-N-(1-(methylsulfonyl)piperidin-4-yl)-5-(trifluoromethyl)pyrimidin-2-amine] | ≤ 50
CS(=O)(=O)N1CCC(Nc2ncc(C(F)(F)F)c(-c3cn(-c4ccc(Cn5cnnn5)cc4Cl)cn3)n2)CC1 [Example 244, 4-(1-(4-((1H-Tetrazol-1-yl)methyl)-2-chlorophenyl)-1H-imidazol-4-yl)-N-(1-(methylsulfonyl)piperidin-4-yl)-5-(trifluoromethyl)pyrimidin-2-amine] | ≤ 50
CNCc1ccc(-n2cnc(-c3nc(NC4CCN(S(C)(=O)=O)CC4)ncc3C(F)(F)F)c2)c(C(F)F)n1 [Example 245, 4-(1-(2-(Difluoromethyl)-6-((methylamino)methyl)pyridin-3-yl)-1H-imidazol-4-yl)-N-(1-(methylsulfonyl)piperidin-4-yl)-5-(trifluoromethyl)pyrimidin-2-amine] | ≤ 50
CN(C)Cc1ccc(-n2cnc(-c3nc(NC4CCN(S(C)(=O)=O)CC4)ncc3C(F)(F)F)c2)c(C(F)(F)F)n1 [Example 246, 4-(1-(6-((Dimethylamino)methyl)-2-(trifluoromethyl)pyridin-3-yl)-1H-imidazol-4-yl)-N-(1-(methylsulfonyl)piperidin-4-yl)-5-(trifluoromethyl)pyrimidin-2-amine] | ≤ 50
CS(=O)(=O)N1CCC(Nc2ncc(C(F)(F)F)c(-c3cn(-c4ccc(CN5CCC5)nc4C(F)(F)F)cn3)n2)CC1 [Example 247, 4-(1-(6-(Azetidin-1-ylmethyl)-2-(trifluoromethyl)pyridin-3-yl)-1H-imidazol-4-yl)-N-(1-(methylsulfonyl)piperidin-4-yl)-5-(trifluoromethyl)pyrimidin-2-amine] | ≤ 50
CC(O)c1ccc(-n2cnc(-c3nc(NC4CCN(S(C)(=O)=O)CC4)ncc3C(F)(F)F)c2)c(Cl)c1 (stereo not drawn) [Example 248, 1-(3-Chloro-4-(4-(2-((1-(methylsulfonyl)piperidin-4-yl)amino)-5-(trifluoromethyl)pyrimidin-4-yl)-1H-imidazol-1-yl)phenyl)ethan-1-ol] | ≤ 50
CNCc1ccc(-n2cnc(-c3nc(NC4CCN(S(C)(=O)=O)CC4)ncc3C(F)(F)F)c2)c(C#N)c1 [Example 249, 5-((Methylamino)methyl)-2-(4-(2-((1-(methylsulfonyl)piperidin-4-yl)amino)-5-(trifluoromethyl)pyrimidin-4-yl)-1H-imidazol-1-yl)benzonitrile] | ≤ 50
CN(C)Cc1ccc(-n2cnc(-c3nc(NC4CCN(S(C)(=O)=O)CC4)ncc3C(F)(F)F)c2)c(C(F)(F)F)c1 [Example 250, 4-(1-(4-((Dimethylamino)methyl)-2-(trifluoromethyl)phenyl)-1H-imidazol-4-yl)-N-(1-(methylsulfonyl)piperidin-4-yl)-5-(trifluoromethyl)pyrimidin-2-amine] | ≤ 50
CS(=O)(=O)N1CCC(Nc2ncc(C(F)(F)F)c(-c3cn(-c4ccc(CN5CCC5)cc4C(F)(F)F)cn3)n2)CC1 [Example 251, 4-(1-(4-(Azetidin-1-ylmethyl)-2-(trifluoromethyl)phenyl)-1H-imidazol-4-yl)-N-(1-(methylsulfonyl)piperidin-4-yl)-5-(trifluoromethyl)pyrimidin-2-amine] | ≤ 50
Cc1nc(CN2CCC2)ccc1-n1cnc(-c2nc(NC3CCN(S(C)(=O)=O)CC3)ncc2C(F)(F)F)c1 [Example 252, 4-(1-(6-(Azetidin-1-ylmethyl)-2-methylpyridin-3-yl)-1H-imidazol-4-yl)-N-(1-(methylsulfonyl)piperidin-4-yl)-5-(trifluoromethyl)pyrimidin-2-amine] | ≤ 50
CN(C)Cc1ccc(-n2cnc(-c3nc(NC4CCN(S(C)(=O)=O)CC4)ncc3C(F)(F)F)c2)c(Cl)c1F [Example 253, 4-(1-(2-Chloro-4-((dimethylamino)methyl)-3-fluorophenyl)-1H-imidazol-4-yl)-N-(1-(methylsulfonyl)piperidin-4-yl)-5-(trifluoromethyl)pyrimidin-2-amine] | ≤ 50
CNCc1ccc(-n2cnc(-c3nc(NC4CCN(S(C)(=O)=O)CC4)ncc3C(F)(F)F)c2)c(C(F)(F)F)c1 [Example 254, 4-(1-(4-((Methylamino)methyl)-2-(trifluoromethyl)phenyl)-1H-imidazol-4-yl)-N-(1-(methylsulfonyl)piperidin-4-yl)-5-(trifluoromethyl)pyrimidin-2-amine] | ≤ 50
CCNCc1ccc(-n2cnc(-c3nc(NC4CCN(S(C)(=O)=O)CC4)ncc3C(F)(F)F)c2)c(C(F)(F)F)c1 [Example 255, 4-(1-(4-((Ethylamino)methyl)-2-(trifluoromethyl)phenyl)-1H-imidazol-4-yl)-N-(1-(methylsulfonyl)piperidin-4-yl)-5-(trifluoromethyl)pyrimidin-2-amine] | ≤ 50
CS(=O)(=O)N1CCC(Nc2ncc(C(F)(F)F)c(-c3cn(-c4ccc(CNC5CC5)cc4C(F)(F)F)cn3)n2)CC1 [Example 256] | ≤ 50
CCN(C)Cc1ccc(-n2cnc(-c3nc(NC4CCN(S(C)(=O)=O)CC4)ncc3C(F)(F)F)c2)c(C(F)(F)F)c1 [Example 257, 4-(1-(4-((Ethyl(methyl)amino)methyl)-2-(trifluoromethyl)phenyl)-1H-imidazol-4-yl)-N-(1-(methylsulfonyl)piperidin-4-yl)-5-(trifluoromethyl)pyrimidin-2-amine] | ≤ 50
CCN(CC)Cc1ccc(-n2cnc(-c3nc(NC4CCN(S(C)(=O)=O)CC4)ncc3C(F)(F)F)c2)c(C(F)(F)F)c1 [Example 258, 4-(1-(4-((Diethylamino)methyl)-2-(trifluoromethyl)phenyl)-1H-imidazol-4-yl)-N-(1-(methylsulfonyl)piperidin-4-yl)-5-(trifluoromethyl)pyrimidin-2-amine] | ≤ 50
CS(=O)(=O)N1CCC(Nc2ncc(C(F)(F)F)c(-c3cn(-c4ccc(CN5CC(O)C5)cc4C(F)(F)F)cn3)n2)CC1 [Example 259, 1-(4-(4-(2-((1-(Methylsulfonyl)piperidin-4-yl)amino)-5-(trifluoromethyl)pyrimidin-4-yl)-1H-imidazol-1-yl)-3-(trifluoromethyl)benzyl) azetidin-3-ol] | ≤ 50
CS(=O)(=O)N1CCC(Nc2ncc(C(F)(F)F)c(-c3cn(-c4ccc(CN5CC[C@H](O)C5)cc4C(F)(F)F)cn3)n2)CC1 [Example 260, (S)-1-(4-(4-(2-((1-(Methylsulfonyl)piperidin-4-yl)amino)-5-(trifluoromethyl)pyrimidin-4-yl)-1H-imidazol-1-yl)-(trifluoromethyl)benzyl) pyrrolidin-3-ol] | ≤ 50
C[C@]1(O)CCN(Cc2ccc(-n3cnc(-c4nc(NC5CCN(S(C)(=O)=O)CC5)ncc4C(F)(F)F)c3)c(C(F)(F)F)c2)C1 [Example 261, (S)-3-Methyl-1-(4-(4-(2-((1-(methylsulfonyl)piperidin-4-yl)amino)-5-(trifluoromethyl)pyrimidin-4-yl)-1H-imidazol-1-yl)-3-(trifluoromethyl)benzyl) pyrrolidin-3-ol] | ≤ 50
CC1(O)CCN(Cc2ccc(-n3cnc(-c4nc(NC5CCN(S(C)(=O)=O)CC5)ncc4C(F)(F)F)c3)c(C(F)(F)F)c2)CC1 [Example 262, 4-Methyl-1-(4-(4-(2-((1-(methylsulfonyl)piperidin-4-yl)amino)-5-(trifluoromethyl)pyrimidin-4-yl)-1H-imidazol-1-yl)-3-(trifluoromethyl)benzyl) piperidin-4-ol] | ≤ 50
